The record followed here is a melting point compilation (Tetko et al.; mined from patent text by program, amines drawn as free bases though some values may be those of a salt).

As for `COC(=O)c1ccc(OCC(O)c2cc3cc(C(C)(C)C)ccc3o2)cc1` (stereo not drawn), the melting point (commonly the temperature of the solid-liquid transition) lay within 110 to 112 °C.
Compound `COc1ccc(N)c(SSc2cc(OC)ccc2N)c1` gave a melting point of 78 to 80 °C.
The compound `O=CNc1ccc(Cl)cc1C(=O)c1ccccc1Cl` returned a melting point of 106 to 107 °C.
`CC1NC(=O)NN=C1c1ccc(N2CCCC2)cc1` (stereo not drawn) showed a melting point of 276 to 281 °C.
`Cc1cc(N)nc(N)n1` gave a melting point of 183 °C.
Turning to `O=C(OC1CCCC1)c1ncn2c1[C@@H]1CCN1C(=O)c1c(I)cccc1-2`, the melting point is 184 to 185 °C.
On to `COc1ccc(C(=O)Nc2ccccc2)cc1NCc1ccc(O)c([N+](=O)[O-])c1`, for which the melting point lay within 175 to 176 °C.
As to `O=C(c1ccccc1)c1cc(-c2ccncc2)sc1-c1ccncc1`, the melting point fell in the range of 168 to 170 °C.
`O=C(O)CS(=O)(=O)Nc1c(F)cc(F)cc1F` gave a melting point of 126 to 127 °C.
To `Cn1cccc1-c1cc2cccnc2[nH]1` belongs 183 °C; to `O=C(c1n[nH]c2c(=O)[nH]c3cc(Cl)ccc3c(=O)c12)N1CCOCC1`, 347 °C; to `CC(=O)SC(CC(=O)c1ccc(Oc2ccc(Br)cc2)cc1)C(=O)O` (stereo not drawn), 117 to 118 °C.
Consider `C=CCc1c(OCCCSCc2nnn[nH]2)ccc(C(C)=O)c1O`, for which the melting point lay within 129 to 132 °C.
The compound `COCCOc1ncnc2[nH]ccc12` registered a melting point of 137 to 139 °C.
Regarding `CCOc1ccc(CC)cc1-c1nc2ccc(C(=O)O)cc2c(=O)[nH]1`, the melting point was > 310 °C.
To `Cc1cc(C#Cc2cnn3c(C(F)(F)F)cc(-c4ccc(C(F)(F)F)cc4)nc23)ccn1` belongs 206 °C; to `CCOP(=O)(CCCOc1ccc2c(c1)c(CC(N)=O)c(C)n2Cc1ccccc1)OCC`, 106 to 111 °C; to `Nc1ccc(NCCc2ccccc2)cc1`, 247 °C.
To `CC(C)(C)OC(=O)COc1ccc(C(=O)CN2CCN(c3ccncc3)CC2)cc1` belongs 103 to 104 °C.
To `CC(C)(C)C(=O)OCn1nc2ccc(NCCCN3CCC(OC(c4ccccc4)c4ccccc4)CC3)nn2c1=O` belongs 168 to 171 °C; to `NS(=O)(=O)c1ccc(Nc2ccccc2)c([N+](=O)[O-])c1`, 155 °C; to `CCc1ccc2c(c1)C=Cc1cc(C)ccc1C2c1cn(Cc2ccc(C(=O)Nc3nnn[nH]3)o2)c(=O)[nH]c1=S` (stereo not drawn), 260 °C.
In turn, `CC(C)(C)C(NC(=O)Cc1ccc(Cl)cc1)NC(=NC#N)Nc1cccc2cnsc12` (stereo not drawn) came in with a melting point of 135 to 137 °C.
In turn, `CCC(O)(CCC(N)=O)c1ccc(Br)cc1` (stereo not drawn) gave a melting point of 122 to 123 °C.
To `Cc1ccc(C2(O)CCNCC2)cc1` belongs 137 to 138 °C; to `CCC(C)(CC)NC(=O)C1(O)CC(C)(C)NC(C)(C)C1`, 127 to 129 °C; to `CCOC(=O)c1cnc2sc3c(c2c1O)CCCC3`, 138 to 140 °C.
In turn, `Cc1cc(SC(C)C)c(NC(=O)CSc2nc3ccccc3o2)c(SC(C)C)n1` showed a melting point of 151 to 152 °C.
Compound `CN(C(=O)C1CCC1)c1cccc(-c2ccnc3c(C#N)cnn23)c1` came in with a melting point of 157 to 158 °C.
In turn, `Brc1ccc(C2CC(n3cncn3)c3ccccc3N2)cc1` (stereo not drawn) yielded a melting point of 158 to 160 °C.
The compound `O=C(Nc1ccccc1)Oc1cc(N2C(=O)C3=C(CCCC3)C2=O)c(F)cc1Cl` came in with a melting point of 149 to 151 °C.
For the compound `CC(C)NCC(O)COc1ccc2c(=O)cc(-c3ccc(OCc4ccccc4)c(OCc4ccccc4)c3)oc2c1` (stereo not drawn), the melting point lay within 177 to 179 °C.
Compound `CCOC(=O)c1cnc2nc(S(=O)(=O)Cl)nn2c1C` yielded a melting point of 65 to 69 °C.
`CCCCCCCCCc1cc(=O)c2c(O)cc(O)cc2o1` gave a melting point of 101 °C.
As for `CNC(=O)Cn1c(-c2ccc([N+](=O)[O-])cc2)nc2cccnc21`, the melting point is > 260 °C.
Turning to `COc1cc(C(=O)Cc2ccccc2C)ccc1O`, the melting point was 79 to 81 °C.
To `CC(Cc1ccc(OCC(=O)O)c(F)c1)NS(=O)(=O)c1ccccc1` (stereo not drawn) belongs 148 to 150 °C; to `O=C(NCC(F)(F)F)C1c2cc(F)ccc2-c2c(CCCCN3CCC(N4C(=O)c5ccccc5C4=O)CC3)cc(F)cc21` (stereo not drawn), 186 to 188 °C; to `N#Cc1c(Cl)csc1N`, 230 °C.
In the case of `CCOC(=O)N1c2cc(OC)c(OC)cc2C(=O)C(=CN(C)C)C1C` (stereo not drawn), the melting point lay in the range of 130 to 131 °C.
In the case of `NC(=O)c1c(N)cccc1OCCOc1ccccc1`, the melting point was in the range of 127 to 130 °C.
In turn, `CCOC(=O)/C(C)=C(/C)c1cn(C(c2ccccc2)(c2ccccc2)c2ccccc2)cn1` had a melting point of 166 to 168 °C.
`CCCC=Cc1c(C(C)C)nc(C(C)C)c(CO)c1-c1cccc(OC)c1`: the melting point fell in the range of 71 to 75 °C.
In turn, `CC1CNC(=Nc2ccccc2N2CCOCC2)N1` (stereo not drawn) gave a melting point of 173 to 174 °C.
On to `O=C(c1ccc([N+](=O)[O-])c(OCC2CO2)c1)N1CCOCC1` (stereo not drawn), for which the melting point lay within 156 to 158 °C.
The result for `COC(=O)c1n[nH]c(C(C)C)c1[N+](=O)[O-]` reads 78 to 80 °C; that for `COC(=O)c1ccc(COc2ccc(-c3cc(O)c(SCCc4ccccc4)c(=O)o3)cc2)cc1`, 157 to 158 °C; that for `COc1ccc2nscc2c1`, 51 to 55 °C.
As for `O=C(c1ccc2c(c1)CCO2)N1Cc2cccnc2Nc2ccccc21`, the melting point worked out at 188 °C.
As to `Cc1cccc2c1CCN=C2c1ccc(F)cc1`, the melting point lay in the range of 71 to 71.5 °C.
In the case of `O=C(O)CCC(=O)C(Cc1ccccc1)NC(=O)c1ccccc1` (stereo not drawn), the melting point was 143 to 146 °C.
As for `CCOC(=O)C1SCCN1C(=S)Nc1cc(Cl)cc(Cl)c1` (stereo not drawn), the melting point was in the range of 170 to 172 °C.
Consider `O=C(Nc1cccc2c1C(=O)c1c-2n[nH]c1-c1ccc(C(=O)NN2CCCCC2)s1)NN1CCOCC1`, for which the melting point was in the range of 189 to 191 °C.
As to `CNC(=O)c1ccccc1Nc1nc(Nc2ccc3c(c2)CCC(=O)CC3)ncc1Cl`, the melting point lay in the range of 262 to 269 °C.
The compound `COc1cc2c(c3c1OC(C)(C)C3)C(c1ccn(CC(=O)Nc3cccnc3)c(=O)c1)=NC(C)(C)C2` registered a melting point of 251 to 253 °C.
The result for `CCOC(=O)C1=C(C)NC(N)=C(C(=O)OC(C)C)C1c1cccc([N+](=O)[O-])c1` (stereo not drawn) reads 175 to 176 °C.
Compound `CCCn1c(CCOC)nc2c(N)nc3cc(OCCCNC(=O)OC(C)(C)C)ccc3c21` registered a melting point of 134 to 135 °C.
Compound `Cc1cn(C2OC(COC(=O)c3ccccc3)C(OC(=O)c3ccccc3)C2F)c(=O)[nH]c1=O` (stereo not drawn) displayed a melting point of 120 to 122 °C.
As for `Brc1c(OCc2ccccc2)cccc1C1OCCCO1`, the melting point fell in the range of 73 to 74 °C.
The compound `COC(=O)CCc1conc1-c1ccc(Cl)c(F)c1` came in with a melting point of 57 to 58 °C.
The compound `Cn1cc(C2=C(c3c4n(c5ccccc35)CCC(CNC(=O)OC(C)(C)C)C4)C(=O)N(O)C2=O)c2ccccc21` (stereo not drawn) returned a melting point of 238 to 240 °C.
As for `Cn1ncc(C(=O)c2ccc(S(C)(=O)=O)c3c2CC2CON=C32)c1OC(=O)c1ccccc1` (stereo not drawn), the melting point was in the range of 86 to 93 °C.
`CC(C)CCN1C(=O)C(NC(=O)Nc2ccccc2)C(=O)N(CC23CC4CC(CC(C4)C2)C3)c2ccccc21` (stereo not drawn) returned a melting point of 156 to 157 °C.
